The text below walks through data of US9403830B2, “Inhibitors of leukotriene production” (Boehringer Ingelheim International GmbH, priority 2012, dated 2016).

Assay [1] has as its target T1, human LTA4 hydrolase (Homo sapiens, UniProt P09960).
T1 sequence (P09960 1-611): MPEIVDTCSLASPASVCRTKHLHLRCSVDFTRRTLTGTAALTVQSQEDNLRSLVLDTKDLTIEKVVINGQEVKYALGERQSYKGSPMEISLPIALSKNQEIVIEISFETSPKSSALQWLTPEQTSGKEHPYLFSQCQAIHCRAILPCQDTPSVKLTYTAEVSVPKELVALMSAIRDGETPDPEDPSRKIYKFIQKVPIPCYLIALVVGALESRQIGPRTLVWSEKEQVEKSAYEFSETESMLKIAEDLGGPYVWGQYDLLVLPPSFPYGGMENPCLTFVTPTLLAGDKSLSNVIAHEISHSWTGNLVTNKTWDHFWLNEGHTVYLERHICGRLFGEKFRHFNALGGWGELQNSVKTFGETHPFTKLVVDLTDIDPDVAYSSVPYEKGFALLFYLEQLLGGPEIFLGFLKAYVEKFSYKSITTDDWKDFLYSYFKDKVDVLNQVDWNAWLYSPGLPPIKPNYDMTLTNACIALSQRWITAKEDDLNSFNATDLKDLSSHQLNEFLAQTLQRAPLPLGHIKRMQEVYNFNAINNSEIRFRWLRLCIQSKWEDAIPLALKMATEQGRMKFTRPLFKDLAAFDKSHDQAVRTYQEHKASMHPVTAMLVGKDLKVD
Put plainly: LTA4H Enzyme assay (peptidase, Arg-AMC cleavage). The class given is biochemical. Particulars: LTA4H enzyme 1 nM, Arg-AMC substrate 50 μM, room temperature 1 h, fluorescence 380/460 nm. The essentials:
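Human LTA4H (1 nM final) incubated with compound and Arg-AMC (50 μM final) in 50 mM Tris-HCl pH 7.5, 100 mM KCl, 0.5% BSA, 1 h at room temperature. Product read as AMC fluorescence (ex 380/em 460 nm); IC50 reported.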

In assay [2] the test system is LTB4 synthesis in human whole blood. Put plainly: human whole blood (HWB) assay, inhibition of LTB4 production. The class given is cell-based. Particulars: heparinized human whole blood, calcimycin 20 μM stimulation, plasma LTB4. The essentials:
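Heparinized human whole blood preincubated with compound 15 min at 37 °C, then stimulated with 20 μM (final) calcimycin for 30 min at 37 °C. Plasma LTB4 measured by antibody-based HTRF; IC50 reported.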

In the case of `CC(=O)N[C@@H]1C[C@H]2CC[C@@H](C1)N2Cc1ccc2cc(Oc3ccc(-c4cc[nH]n4)cn3)ccc2n1` [Example 239, N-((exo)-8-{6-[5-(1H-Pyrazol-3-yl)-pyridin-2-yloxy]-quinolin-2-ylmethyl}-8-aza-bicyclo[3.2.1]oct-3-yl)-acetamide], the figures for the IC50 in assay [1] and in assay [2] were 0.43 nM and 260 nM, respectively.
Regarding `CC(=O)N1C[C@@H]2C[C@H]1CN2Cc1ccc2cc(Oc3ccc(-c4cc[nH]n4)cn3)ccc2n1` [Example 240, 1-((S)-5-{6-[5-(1H-Pyrazol-3-yl)-pyridin-2-yloxy]-quinolin-2-ylmethyl}-2,5-diaza-bicyclo[2.2.1]hept-2-yl)-ethanone], the IC50 in assay [1] stood at 0.94 nM; in assay [2] it was 340 nM.
The matching figures for `CC(=O)N1CCN(Cc2cnc3cc(Oc4ccc(-c5ccn[nH]5)cc4)ccc3n2)CC1` [Example 241, 1-(4-{6-[4-(2H-Pyrazol-3-yl)-phenoxy]-quinoxalin-2-ylmethyl}-piperazin-1-yl)-ethanone]: 3.5 nM and 980 nM.
The matching figures for `O=S1(=O)CCN(Cc2ccc3cc(Oc4ccc(-c5cc[nH]n5)cn4)ccc3n2)CC1` [Example 242, 2-(1,1-Dioxo-1-λ-6-thiomorpholin-4-ylmethyl)-6-[5-(1H-pyrazol-3-yl)-pyridin-2-yloxy]-quinoline]: 1.6 nM and 210 nM.
The matching figures for `c1cc(-c2ccc(Oc3ccc4nc(CN5CCCC5)ccc4c3)cc2)[nH]n1` [Example 243, 6-[4-(2H-Pyrazol-3-yl)-phenoxy]-2-pyrrolidin-1-ylmethyl-quinoline]: 0.065 nM and 66 nM.
Regarding `c1cc(-c2ccc(Oc3ccc4nc(CN5CCC5)ccc4c3)cc2)[nH]n1` [Example 244, 2-Azetidin-1-ylmethyl-6-[4-(2H-pyrazol-3-yl)-phenoxy]-quinoline], the IC50 is 0.048 nM in assay [1] and 120 nM in assay [2].
Regarding `CC(=O)N1CC2CCC(C1)N2Cc1ccc2cc(Oc3ccc(-c4ccn[nH]4)cc3)ccc2n1` [Example 245, 1-(8-{6-[4-(2H-Pyrazol-3-yl)-phenoxy]-quinolin-2-ylmethyl}-3,8-diaza-bicyclo[3.2.1]oct-3-yl)-ethanone], the IC50 was 0.18 nM in assay [1] and 170 nM in assay [2].
The matching figures for `c1cc(-c2ccc(Oc3ccc4nc(CN5CCCC5)cn4c3)cc2)[nH]n1` [Example 246, 6-[4-(2H-Pyrazol-3-yl)-phenoxy]-2-pyrrolidin-1-ylmethyl-imidazo[1,2-a]pyridine]: 0.17 nM and 180 nM.
The matching figures for `CC(=O)N1CCN(Cc2ccc3cc(Oc4ccc(-c5ccn[nH]5)cc4)ccc3n2)CC1` [Example 247, 1-(4-{6-[4-(2H-Pyrazol-3-yl)-phenoxy]-quinolin-2-ylmethyl}-piperazin-1-yl)-ethanone]: 0.21 nM and 190 nM.
The matching figures for `CC(=O)N[C@@H]1C[C@H]2CC[C@@H](C1)N2Cc1ccc2cc(Oc3ccc(-c4ccn[nH]4)cc3)ccc2n1` [Example 248, N-((exo)-8-{6-[4-(2H-Pyrazol-3-yl)-phenoxy]-quinolin-2-ylmethyl}-8-aza-bicyclo[3.2.1]oct-3-yl)-acetamide]: 0.083 nM and 200 nM.
For `c1cc(-c2ccc(Oc3ccc4ncc(CN5CCOCC5)cc4c3)cc2)[nH]n1` [Example 249, 3-Morpholin-4-ylmethyl-6-[4-(2H-pyrazol-3-yl)-phenoxy]-quinoline], the concentration for half-maximal inhibition (IC50) in assay [1] was 0.37 nM; in assay [2], 200 nM.
For `c1cc(-c2ccc(Oc3ccc4nc(CN5CCOCC5)cn4c3)cc2)[nH]n1` [Example 250, 2-Morpholin-4-ylmethyl-6-[4-(2H-pyrazol-3-yl)-phenoxy]-imidazo[1,2-a]pyridine], the figures for the IC50 in assay [1] and in assay [2] were 0.57 nM and 210 nM, respectively.
The matching figures for `O=C1CC[C@@H](Cn2cc3cc(Oc4ccc(-c5ccn[nH]5)cc4)ccc3n2)N1` [Example 251, (S)-5-{5-[4-(2H-Pyrazol-3-yl)-phenoxy]-indazol-2-ylmethyl}-pyrrolidin-2-one]: 0.87 nM and 220 nM.
Consider `c1cc(-c2ccc(Cc3ccc4nc(CN5CCOCC5)cn4c3)cc2)[nH]n1` [Example 252, 2-Morpholin-4-ylmethyl-6-[4-(2H-pyrazol-3-yl)-benzyl]-imidazo[1,2-a]pyridine], for which the IC50 turned out to be 0.93 nM in assay [1] and 250 nM in assay [2].
The matching figures for `O=C1CC[C@@H](Cn2ncc3cc(Oc4ccc(-c5ccn[nH]5)cc4)ccc32)N1` [Example 253, (S)-5-{5-[4-(2H-Pyrazol-3-yl)-phenoxy]-indazol-1-ylmethyl}-pyrrolidin-2-one]: 1.4 nM and 300 nM.
With `c1cc(-c2ccc(Oc3ccc4nc(CN5CCOCC5)ccc4c3)cc2)[nH]n1` [Example 254, 2-Morpholin-4-ylmethyl-6-[4-(2H-pyrazol-3-yl)-phenoxy]-quinoline], the IC50 came out at 0.7 nM in assay [1] and 330 nM in assay [2].
The matching figures for `O=C1OCCN1Cc1cn2cc(Oc3ccc(-c4ccn[nH]4)cc3)ccc2n1` [Example 255, 3-{6-[4-(2H-Pyrazol-3-yl)-phenoxy]-imidazo[1,2-a]pyridin-2-ylmethyl}-oxazolidin-2-one]: 1.7 nM and 360 nM.
The matching figures for `Cc1nc2ccc(Oc3ccc(-c4ccn[nH]4)cc3)cc2cc1CN1CCCC1` [Example 256, 2-Methyl-6-[4-(2H-pyrazol-3-yl)-phenoxy]-3-pyrrolidin-1-ylmethyl-quinoline]: 1.6 nM and 480 nM.
In the case of `c1cc(-c2ccc(Oc3ccn4cc(CN5CCOCC5)nc4c3)cc2)[nH]n1` [Example 257, 2-Morpholin-4-ylmethyl-7-[4-(2H-pyrazol-3-yl)-phenoxy]-imidazo[1,2-a]pyridine], the IC50 turned out to be 2.5 nM in assay [1] and 650 nM in assay [2].
For the molecule `O=C(c1cn2ccc(Oc3ccc(-c4ccn[nH]4)cc3)cc2n1)N1CCOCC1` [Example 258, Morpholin-4-yl-{7-[4-(2H-pyrazol-3-yl)-phenoxy]-imidazo[1,2-a]pyridin-2-yl}-methanone], the IC50 in assay [1] was 10 nM; in assay [2] it was 2000 nM.
As for `O=C(O)C1CCN(Cc2cn3cc(Oc4ccc(-c5ccn[nH]5)cc4)ccc3n2)CC1` [Example 259, 1-{6-[4-(2H-Pyrazol-3-yl)-phenoxy]-imidazo[1,2-a]pyridin-2-ylmethyl}-piperidine-4-carboxylic acid], the figures for the IC50 in assay [1] and in assay [2] were 0.12 nM and 2100 nM, respectively.
The matching figures for `O=C1CC[C@@H](OCc2cn3cc(Oc4ccc(-c5ccn[nH]5)cc4)ccc3n2)CN1` [Example 260, (R)-5-{6-[4-(2H-Pyrazol-3-yl)-phenoxy]-imidazo[1,2-a]pyridin-2-ylmethoxy}-piperidin-2-one]: 5.3 nM and 2200 nM.

As usually defined, the IC50 is the concentration that inhibits the measured activity by half.
